Our source for the EC50 values is patent US8173672B2, “Quinolizidinone M1 receptor positive allosteric modulators” (Merck Sharp & Dohme Corp., priority 2008, dated 2012).

The structures appear in SMILES notation.

The assay addresses T1, acetylcholine muscarinic M1 receptor (Homo sapiens, UniProt P11229).
T1 construct: expressed in transfected cells; host or cells: CHOnfat (CHO cells; also called CHOK1/hM1), selected with Geneticin
T1 sequence (P11229 1-460): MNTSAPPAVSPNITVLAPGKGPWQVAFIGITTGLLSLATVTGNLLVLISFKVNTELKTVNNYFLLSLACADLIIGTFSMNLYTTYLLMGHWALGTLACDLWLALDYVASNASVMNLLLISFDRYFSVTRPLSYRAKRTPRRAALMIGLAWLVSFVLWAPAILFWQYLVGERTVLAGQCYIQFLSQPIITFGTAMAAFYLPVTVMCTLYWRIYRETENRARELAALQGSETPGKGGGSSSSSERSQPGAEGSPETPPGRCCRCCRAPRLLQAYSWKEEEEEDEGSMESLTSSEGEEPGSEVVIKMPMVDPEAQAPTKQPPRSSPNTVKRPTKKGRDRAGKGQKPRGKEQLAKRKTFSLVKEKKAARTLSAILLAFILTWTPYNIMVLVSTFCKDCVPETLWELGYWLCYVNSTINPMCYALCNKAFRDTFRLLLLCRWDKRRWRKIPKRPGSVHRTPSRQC
As to the kind of experiment: muscarinic FLIPR assay: potentiation of acetylcholine (EC20)-stimulated intracellular calcium in CHOnfat/hM1 cells. It counts as cell-based. Conditions: 4 min preincubation, then EC20 acetylcholine (3 nM final), read-out: IP Value (inflection point). On the procedure:
The assay studies the effect of one or several concentrations of test compounds on basal or acetylcholine-stimulated Ca^2+ levels using FLIPR.
Compounds are prepared and subjected to a preincubation period of 4 min. Thereafter, a single EC20 concentration of acetylcholine is added to each well (3 nM final). The intracellular Ca^2+ level of each sample is measured and compared to an acetylcholine control to determine any modulatory activity.
Cells: CHOnfat/hM1, hM2, hM3 or hM4 cells are plated 24 hr before the assay at a density of 18,000 cells/well (100 μL) in a 384 well plate. CHOnfat/hM1 and CHOnfat/hM3 Growth Medium: 90% DMEM (Hi Glucose); 10% HI FBS; 2 mM L-glutamine; 0.1 mM NEAA; Pen-Strep; and 1 mg/ml Geneticin, are added. For M2Gqi5CHOnfat and M4Gqi5CHOnfat cells, an additional 600 μg/ml hygromycin is added.
Equipment: 384 well plate, 120 μL addition plate; 96-well Whatman 2 ml Uniplate Incubator, 37° C., 5% CO2; Skatron EMBLA-384 Plate Washer; Multimek Pipetting System; Genesis Freedom 200 System; Mosquito System; Temo Nanolitre Pipetting System; and FLIPR^384 Fluorometric Imaging Plate Reader System are used.
Buffers. Assay Buffer: Hanks Balanced Salt Solution, with 20 mM Hepes, 2.5 mM Probenecid (Sigma P-8761) first dissolved in 1N aqueous NaOH, 1% Bovine Serum Albumin (Sigma A-9647). Dye Loading Buffer: Assay Buffer plus 1% Fetal Bovine Serum and Fluo-4AM/Pluronic Acid Mixture. 2 mM Fluo-4AM ester stock in DMSO (Molecular Probes F-14202) Concentration of 2 μM in buffer for a final concentration of 1 μM in Assay. 20% Pluronic Acid Solution stock, with a concentration of 0.04% in Buffer, 0.02% in Assay.
65 μl of 2 mM Fluo-4AM are mixed with 130 μL of 20% Pluronic Acid. The resulting solution and 650 μL FBS is added to the assay buffer for a total volume of 65 mL. Positive Controls: 4-Br-A23187: 10 mM in DMSO; final concentration 10 μM. Acetylcholine: 10 mM in water, working stock at both 20 μM and 30 μM in assay buffer, final concentration of 10 μM. This is used to check the maximum stimulation of the CHOK1/hM1 cells. 20 μM (2×) acetylcholine is added in the preincubation part of the assay, and the 30 μM (3×) stock is added in the second part. (EC20) Acetylcholine: 10 mM in water, working stock of 9 nM (3×), and final concentration in assay is 3 nM. This is used after the preincubation with test compounds. Addition of the EC20 Acetylcholine to each well with a test compound will ascertain any modulator activity. 24 wells contain 3 nM Acetylcholine alone as a control.
Determining Activity of Putative Compounds:
Screening Plate: Compounds are titrated in 96-well plates (columns 2-11), 100% DMSO, started at a concentration of 15 mM (150× stock concentration), and 3-fold serial dilutions using Genesis Freedom200 System. Four 96-well plates are combined into a 384-well plate using Mosquito Nanolitre Pipetting System by transferring 1 μl of serial diluted compounds to each well, and 1 mM acetylcholine (100× stock concentration) were added as a control. Using Temo, 49 μl assay buffer is added to each well of the 384-well plate right before assay.
In a 96-well Whatman 2 ml Uniplate, 9 nM Acetylcholine (3×) is pipetted into wells corresponding to the screening compounds and into control wells. The 30 μM acetylcholine control (3×) is added into control wells and the 3× agonist plate is transferred into a 384-well plate.
Cells are washed three times with 100 μL of buffer, leaving 30 μL of buffer in each well. Using Multimek, 30 μL of Dye Loading Buffer is added into each well and incubated at 37° C., 5% CO2 for up to one hr.
After 60 min, the cells are washed three times with 100 μL of buffer, leaving 30 μL of buffer in each well. The cell plate, screening plate, and agonist addition plates are placed on the platform in the FLIPR and the door is closed. A signal test to check background fluorescence and basal fluorescence signal is performed. Laser intensity is adjusted if necessary. […]
For the compound `N#Cc1ccc2c(c1)CCN(Cc1cc(C(=O)O)c(=O)n3ccccc13)C2` [Example 88, 1-[(6-cyano-3,4-dihydroisoquinolin-2(1H)-yl)methyl]-4-oxo-4H-quinolizine-3-carboxylic acid], the EC50 stood at 12000 nM.

Regarding `O=C(O)c1cc(CN2CCc3ccccc3C2c2ccncc2)c2ccccn2c1=O` (centres unmarked) [Example 17], the EC50 amounted to 84 nM.

Regarding `O=C(O)c1cc(CN2CCc3cnccc3C2)c2ccccn2c1=O` [Example 54], the EC50 was determined as 900 nM.

`O=C(O)c1cc(CN2Cc3ccccc3C[C@@H]2CO)c2ccccn2c1=O` [Example 7]: the EC50 came to 8980 nM.

`O=C(O)c1cc(CN2CCc3ccccc3C2)c2ccccn2c1=O` [Example 6]: the EC50 was determined as 1720 nM.

In the case of `CCOC(=O)C1c2ccccc2CCN1Cc1cc(C(=O)O)c(=O)n2ccccc12` (centres unmarked) [Example 11], the EC50 was determined as 286 nM.

Take `O=C(O)c1cc(CN2CCc3cc(-c4ccccc4)ccc3C2)c2ccccn2c1=O` [Example 87, 4-Oxo-1-[(6-phenyl-3,4-dihydroisoquinolin-2(1H)-yl)methyl]-4H-quinolizine-3-carboxylic acid]: the EC50 came out at 6200 nM.

As to `O=C(O)c1cc(CN2CCn3c(-c4ccccc4)cnc3C2)c2ccccn2c1=O` [Example 69], the EC50 is 4180 nM.

With `Cc1ccc2c(c1)CCN(Cc1cc(C(=O)O)c(=O)n3ccccc13)C2` [Example 89, 1-[(6-methyl-3,4-dihydroisoquinolin-2(1H)-yl)methyl]-4-oxo-4H-quinolizine-3-carboxylic acid], the EC50 stood at 6700 nM.

In the case of `O=C(O)c1cc(CN2CCc3cc(Cl)ccc3C2)c2ccccn2c1=O` [Example 1, 1-[(6-chloro-3,4-dihydroisoquinolin-2(1H)-yl)methyl]-4-oxo-4H-quinolizine-3-carboxylic acid], the EC50 is 510 nM.

As for `O=C(O)c1cc(CN2CCc3ccccc3C2c2ccccc2F)c2ccccn2c1=O` (centres unmarked) [Example 18], the EC50 was 150 nM.
